From the supplement of paper PMC10307832

Experiments:
Assay in all cases: relative viability (nuclei count vs DMSO), 5 days (fraction); higher = more cells survive
CX-5461 + Foretinib = compound: Cc1cnc(CNC(=O)c2c(=O)c3ccc(N4CCCN(C)CC4)nc3n3c2sc2ccccc23)cn1 [CX-5461] + COc1cc2c(Oc3ccc(NC(=O)C4(C(=O)Nc5ccc(F)cc5)CC4)cc3F)ccnc2cc1OCCCN1CCOCC1 [Foretinib] (partner 0.25 µM)
In short: (§1)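 Lung cancer cell lines were pin-tool dosed in 1536-well plates on the day after seeding, with either a lone drug or a fixed anchor-drug dose plus five library-drug doses (not always all listed) in √10 steps. Nuclei were counted on 4× images after 5 days. Relative viability is the ratio of treated-well to vehicle-well nuclei counts, with each value a median of duplicate plates.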

CX-5461 + Pictilisib = compound: Cc1cnc(CNC(=O)c2c(=O)c3ccc(N4CCCN(C)CC4)nc3n3c2sc2ccccc23)cn1 [CX-5461] + CS(=O)(=O)N1CCN(Cc2cc3nc(-c4cccc5[nH]ncc45)nc(N4CCOCC4)c3s2)CC1 [Pictilisib] (partner 1 µM)
In short: as §1

IMD-0354 + Tozasertib = compound: O=C(Nc1cc(C(F)(F)F)cc(C(F)(F)F)c1)c1cc(Cl)ccc1O [IMD-0354] + Cc1cc(Nc2cc(N3CCN(C)CC3)nc(Sc3ccc(NC(=O)C4CC4)cc3)n2)n[nH]1 [Tozasertib] (partner 0.1 µM)
In short: as §1

IMD-0354 + Olaparib = compound: O=C(Nc1cc(C(F)(F)F)cc(C(F)(F)F)c1)c1cc(Cl)ccc1O [IMD-0354] + O=C(c1cc(Cc2n[nH]c(=O)c3ccccc23)ccc1F)N1CCN(C(=O)C2CC2)CC1 [Olaparib] (partner 8 µM)
In short: as §1

Cell Line	relative viability (CX-5461 + Foretinib; first compound 0.01 µM)	relative viability (CX-5461 + Foretinib; first compound 0.03162 µM)	relative viability (CX-5461 + Foretinib; first compound 0.1 µM)	relative viability (CX-5461 + Foretinib; first compound 0.3162 µM)	relative viability (CX-5461 + Foretinib; first compound 1 µM)	relative viability (CX-5461 + Pictilisib; first compound 0.01 µM)	relative viability (CX-5461 + Pictilisib; first compound 0.03162 µM)	relative viability (CX-5461 + Pictilisib; first compound 0.1 µM)	relative viability (CX-5461 + Pictilisib; first compound 0.3162 µM)	relative viability (CX-5461 + Pictilisib; first compound 1 µM)	relative viability (IMD-0354 + Tozasertib; first compound 0.04 µM)	relative viability (IMD-0354 + Tozasertib; first compound 0.1265 µM)	relative viability (IMD-0354 + Tozasertib; first compound 0.4 µM)	relative viability (IMD-0354 + Tozasertib; first compound 1.265 µM)	relative viability (IMD-0354 + Tozasertib; first compound 4 µM)	relative viability (IMD-0354 + Olaparib; first compound 0.04 µM)	relative viability (IMD-0354 + Olaparib; first compound 0.1265 µM)	relative viability (IMD-0354 + Olaparib; first compound 0.4 µM)	relative viability (IMD-0354 + Olaparib; first compound 1.265 µM)	relative viability (IMD-0354 + Olaparib; first compound 4 µM)
NCI-H23	0.874	1.15	0.98	0.938	1.08	0.449	0.501	0.488	0.292	0.362	0.338	0.376	0.275	0.157	0.186	0.277	0.35	0.24	0.132	0.197
LCLC-97TM1	0.953	1.02	1		0.975	0.179	0.172	0.188		0.204	0.2	0.223	0.171	0.18	0.116	0.407	0.387	0.213	0.154	0.141
EPLC-272H	0.651	0.681	0.78		0.467	0.306	0.353	0.339		0.335	0.256	0.241	0.16	0.24	0.113	1.16	0.495	0.599	0.106	0.38
NCI-H1915	1.14	1.07	1.09	1.08	1.05	0.966	1.18	1.1	0.326	0.997	0.482	0.412	0.299	0.268	0.175	0.264	0.263	0.235	0.175	0.136
NCI-H2405	1.03	1.08	1.04	0.952	1.03	0.427	0.468	0.419	0.259	0.413	0.742	0.727	0.732	0.346	0.322	0.905	0.866	0.491	0.258	0.258
NCI-H322M	0.834	0.995	0.937	0.394	0.7	0.578	0.535	0.575		0.464	0.469	0.471	0.387	0.289	0.359	0.789	0.773	0.6	0.407	0.517
NCI-H358	0.671	0.666	0.791	0.236	0.336	0.29	0.323	0.249	0.19	0.316	0.11	0.1	0.0993	0.0845	0.0798	0.569	0.543	0.335	0.14	0.198
NCI-H1793	0.8	0.734	0.665		0.802	0.202	0.311	0.344	0.212	0.402	0.405	0.321	0.233	0.15	0.191	0.856	0.797	0.399	0.213	0.251
SK-MES-1	1.05	1.05	1.04	1.08	0.838	0.391	0.352	0.402	0.324	0.333	1.14	0.873	0.543	0.287	0.215	0.894	0.643	0.312	0.19	0.226
NCI-H838	1.11	1.1	1.16		0.931	0.457	0.473	0.5	0.474	0.325	0.299	0.286	0.2	0.191	0.172	0.778	0.73	0.426	0.253	0.302
CAL-12T	1.03	1.08	0.966	0.945	0.741	0.384	0.386	0.331	0.33	0.449	0.399	0.307	0.242	0.278	0.111	0.728	0.705	0.492	0.181	0.203
